Measurements from the COVID Moonshot data (paper PMC7615835).
“And” between values parts separate entries of the source, which are not always exact repeats. Identical values can stand only once.

target: SARS-CoV-2 Main Protease (SARS-CoV-2) (UniProt P0DTD1)

SMILES	IC50
CC(C)(C)c1ccc(N(C(=O)c2cc(=O)c3c(O)cccc3o2)C(C(=O)NCCc2cccc(F)c2)c2cccnc2)cc1 (stereo not drawn)	> 99500 nM
O=C(Cc1cc(Cl)cc(Nc2cc(Cl)ccc2OC(F)(F)F)c1)Nc1cncc2ccccc12	2120 nM
O=C(NC(c1ccccc1)c1ccccc1)[C@@H]1CN(C(=O)CCl)CCN1S(=O)(=O)c1ccsc1 (stereo in doubt)	635 nM
O=C(NCCc1cccc(F)c1)C(c1cccnc1)N(C(=O)c1cnc[nH]1)c1ccc(Cn2cccn2)cc1 (stereo not drawn)	35500 nM
Cc1ccc(C(Cc2cnn(C)c2)C(=O)Nc2n[nH]c3ccccc23)cc1 (stereo not drawn)	> 99500 nM
Cc1nc2ccc(N(C(=O)c3cocn3)C(C(=O)NCCc3cccc(F)c3)c3cccnc3)cc2o1 (stereo not drawn)	> 99500 nM
O=C(Nc1ccc(-c2nnc[nH]2)cc1)c1cccc(F)c1F	> 99500 nM
CC(C)N1CCCC(N2CCN(c3ccc4nccnc4n3)CC2)C1=O (stereo not drawn)	> 99500 nM
N#CC1(CS(=O)(=O)N2Cc3ccc(Cl)cc3C3(CCN(c4cncc5cccc(Cl)c45)C3=O)C2)CC1 (stereo not drawn)	7790 nM
COc1ccccc1NC1CN(C(=O)c2cc(=O)[nH]c3ccccc23)C1	> 99500 nM
CSc1ncc(C#N)c(Nc2cc(Cl)cc(CC(=O)Nc3cncc4ccccc34)c2)n1	1840 nM
CC(C)(C)c1ccc(N(C(=O)c2cocn2)C(C(=O)NCCc2cccc(F)c2)c2cncnc2)cc1 (stereo not drawn)	2920 nM
COc1ccccc1N(C(=O)c1ccco1)C(C(=O)NCCc1cccc(F)c1)c1cccnc1 (stereo not drawn)	> 99500 nM
C=CC(=O)N(Cc1ccccc1Cl)C(C(=O)NC)c1cccnc1 (stereo not drawn)	> 99500 nM
O=C(Cc1cccc(Cl)c1)Nc1cncc2cccc(Cl)c12	594 nM
CC1CN(Cc2cccc(Cl)c2)CCN1C(=O)CCl (stereo not drawn)	7730 nM
O=C(NCCNc1ccccc1)c1cc(=O)[nH]c2ccccc12	> 99500 nM
O=C(Cc1cc(Cl)cc(OC2CC(=O)N2)c1)Nc1cc(=O)[nH]c2ccccc12 (stereo not drawn)	83300 nM
Nc1cccc2c(=O)[nH]n(-c3cc(Cl)cc(CC(=O)Nc4cncc5ccccc45)c3)c(=O)c12	5920 nM
CCOC(=O)Cn1cc(C(=O)N(c2ccc(C(C)(C)C)cc2)C(C(=O)NCCc2cccc(F)c2)c2cccnc2)nn1 (stereo not drawn)	44000 nM
O=C(Nc1cncc2c1CCCC2)C1CNS(=O)(=O)c2ccc(Cl)cc21 (stereo not drawn)	452 nM
CC(C)(C)c1ccc(N(C(=O)c2nc3cnccc3s2)C(C(=O)NCCc2cccc(F)c2)c2cccnc2)cc1 (stereo not drawn)	> 99500 nM
Cc1ccc(C(=O)Nc2c(-c3cnn(C)c3)nc3ccccn23)cn1	> 99500 nM
CS(=O)(=O)Nc1ccc2cncc(NC(=O)C3CNC(=O)c4ccc(Cl)cc43)c2c1 (stereo not drawn)	195 nM

SMILES	IC50
COc1ccccc1CN(C(=O)c1cnc[nH]1)C(C(=O)NCCc1cccc(F)c1)c1cccnc1 (stereo not drawn)	> 99000 nM
O=C(Cc1cc(Cl)cc(NCc2ccc(I)cc2)c1)Nc1cncc2ccccc12	4370 nM
Cc1cccc(C)c1N(C(=O)CN1CCNCC1)c1cc(Cl)cc(CC(=O)Nc2cncc3ccccc23)c1	2740 nM
O=C(Nc1cncc2ccccc12)C1CN(S(=O)(=O)CC2(F)CC2)Cc2ccc(Cl)cc21 (stereo not drawn)	176 nM
CN1CCN(c2cncc3ccccc23)C(=O)C1c1cccc(Cl)c1 (stereo not drawn)	2210 nM
O=C(Nc1cncc2ccncc12)C1CCOc2cc(F)c(Cl)cc21 (stereo not drawn)	1100 nM
Cc1ccc(S(=O)(=O)N2CCN(C(=O)CCl)C[C@H]2C(=O)NC2CCCCC2)cc1 (stereo in doubt)	4480 nM
O=C(Cc1cc(Cl)cc(Nc2nnc(-c3ccncc3)s2)c1)Nc1cncc2ccccc12	2190 nM
Cc1ccncc1NC(=O)C(C)c1cccc(Cl)c1 (stereo not drawn)	27200 nM and 25200 nM
Nc1ccc2[nH]c(C(=O)N(C(=O)c3ccco3)C(C(=O)NCCc3cccc(F)c3)c3cccnc3)cc2c1 (stereo not drawn)	> 99500 nM
CC(C)(C)c1ccc(N(C(=O)c2ccnc(N3CCOCC3)n2)C(C(=O)NCCc2cccc(F)c2)c2cccnc2)cc1 (stereo not drawn)	> 99500 nM
Cc1cc(=O)oc2cc(Nc3cc(Cl)cc(CC(=O)Nc4cncc5ccccc45)c3)ccc12	2120 nM
N#CC1(CS(=O)(=O)N2Cc3ccc(Cl)cc3C(C(=O)Nc3cncc4ccccc34)C2)CCOCC1 (stereo not drawn)	80.4 nM and 97.1 nM and 170 nM
Cc1cc(C(F)(F)F)nc2c1c(N)nn2C(=O)Cc1cccc(Cl)c1	> 99500 nM
CC(C)(C)c1ccc(N(C(=O)c2n[nH]c(=O)[nH]c2=O)C(C(=O)NCCc2cccc(F)c2)c2cccnc2)cc1 (stereo not drawn)	> 99500 nM
CC(C)(C)OC(=O)CNC(=O)C(c1cccnc1)N(C(=O)c1cocn1)c1ccc(C(C)(C)C)cc1 (stereo not drawn)	8180 nM
O=C(Nc1ccccc1)[C@@H]1CN(C(=O)CCl)CCN1S(=O)(=O)c1ccsc1 (stereo in doubt)	716 nM
O=C(Cn1cn[nH]c1=O)NC1CCCCCC1c1ccccc1C(F)(F)F (stereo not drawn)	> 99500 nM
O=C(Nc1cncc2ccncc12)[C@@H]1CCOc2cc(F)c(Cl)cc21 (stereo in doubt)	397 nM and 849 nM
O=C(Cc1cc(Cl)cc(Nc2c(Cl)cccc2[N+](=O)[O-])c1)Nc1cncc2ccccc12	2370 nM
O=C(Nc1cncc2ccccc12)C1CN(S(=O)(=O)CC2CC2)Cc2ccc(Cl)cc21 (stereo not drawn)	168 nM
CNC(=O)CN1CC(C(=O)Nc2cncc3c2CCCC3)c2cc(Cl)ccc2C1=O (stereo not drawn)	448 nM
CC12CC3CC(C)(C1)CC(Nc1cc(Cl)cc(CC(=O)Nc4cncc5ccccc45)c1)(C3)C2	1580 nM
COc1cc(Cl)c(C)cc1Nc1cc(Cl)cc(CC(=O)Nc2cncc3ccccc23)c1	1580 nM
